From article PMC6882484, “Influence of verapamil on the pharmacokinetics of oridonin in rats” (Pharmaceutical Biology, 2019)
Read-outs that look alike come from different tables or passages of the source. One block for each compound: values may come before it.

How the values were obtained:
[1] = tested on: Caco-2 cell monolayers; assay: Bidirectional transport across Caco-2 cell transwell model; type: in vitro ADME; details: Caco-2, digoxin 25 µM, verapamil present
Experimental: (§1) The Caco-2 cell line was obtained from the American Type Culture Collection (Manassas, VA, USA), and it was performed according to the previous study (Liu et al. [2018]). The Caco-2 cells were cultured in DMEM high glucose medium containing 15% FBS, 1% NEAA and 100 U/mL penicillin and 100 µg/mL streptomycin. The cells were cultured at 37 °C with 5% CO2. For transport studies, the cells at passage 40 were seeded on transwell polycarbonate insert filters (1.12 cm^2 surface, 0.4 µm pore size, 12 mm diameter; Corning Costar Corporation, MA, USA) in 12-well plates at a density of 1 × 10^5 cells/cm^2. Cells were allowed to grow for 21 days. For the first seven days, the medium was replaced every two days, and then daily. The transepithelial electrical resistance (TEER) of the monolayer cells was measured using Millicell ERS-2 (Millipore Corporation, Billerica, MA, USA), and TEER exceeding 400 Ω·cm^2 was used for the flux experiment. The integrity of the Caco-2 monolayers was confirmed by the paracellular flux of Lucifer yellow, which was less than 1% per hour. The alkaline phosphatase activity was validated using an Alkaline Phosphatase Assay Kit. The qualified monolayers were used for transport studies. Before the transport experiments, the cell monolayers were rinsed twice using warm (37 °C) HBSS, then the cells were incubated at 37 °C for 20 min. After preincubation, the cell monolayers were incubated with oridonin in fresh incubation medium added on either the apical or basolateral side for the indicated times at 37 °C. […] The permeability of oridonin (2 µM) in all of the above condition s for both directions, i.e., from the apical (AP) side to the basolateral (BL) side and from the BL side to the AP side, was measured after incubation for 30, 60, 90 and 120 min at 37 °C. In addition, the efflux activity of P-gp was validated using a typical P-gp substrate digoxin (25 µM). The apparent permeability coefficient (Papp) was calculated using the equation of Artursson and Karlsson: Papp=(ΔQ/Δt)×[1/(A×C0)] where Papp is the apparent permeability coefficient (cm/s), ΔQ/Δt (µmol/s) is the rate at which the compound appears in the receiver chamber, C0 (µmol/L) is the initial concentration of the compound in the donor chamber and A (cm^2) represents the surface area of the cell monolayer. Data were collected from three separate experiments, and each was performed in triplicate. In addition, the efflux activity of P-gp was validated using a typical P-gp substrate digoxin (25 µM).

[2] = tested on: P-gp; assay: as above; type: in vitro ADME; details: human; Caco-2, digoxin 25 µM, P-gp substrate validation, without verapamil
Experimental: as §1

[3] = In vivo pharmacokinetic study of oridonin in rats with or without verapamil pre-treatment; details: Sprague-Dawley, rat, plasma, po, intragastrical oridonin (40 mg/kg; n = 6, mean ± SD); for CL/F: read-out: CLz/F (oral clearance) (converted)
Experimental: To evaluate the effects of verapamil on the pharmacokinetics of oridonin, the rats were divided into two groups of six animals each. The pre-treatment group was pre-treated with verapamil at a dose of 10 mg/kg/day (dissolved directly in normal saline containing 0.5% methylcellulose at a concentration of 2 mg/mL) for 7 days before the administration of oridonin. […] The dose of verapamil and oridonin were based on previous reports (Xu et al. [2006]; Zhu et al. [2017]; Huang et al. [2018]; Zhou et al. [2019]). The control group was without the pre-treatment of verapamil before the oral administration of oridonin. Blood samples (250 µL) were collected into heparinized tubes via the oculi chorioideae vein at 0.083, 0.33, 0.5, 1, 2, 4, 6, 8, 10, 12, 24 and 36 h after the oral administration of oridonin. The blood samples were centrifuged at 3500 rpm for 5 min. The plasma samples that were obtained were stored at −40 °C until analysis.
To 100 µL aliquot of a plasma sample, 20 µL methanol and 180 µL internal standard methanol solution (2 ng/mL) were added and vortexed for 60 s to mix in a 1.5 mL polypropylene tube, and were centrifuged at 12,000 rpm for 10 min. The supernatant was removed into an injection vial, and a 3 µL aliquot was injected into the LC-MS/MS system for analysis.
The determination of oridonin was performed on Agilent 1290 series liquid chromatography system and an Agilent 6470 triple-quadruple mass spectrometer (Palo Alto, CA, USA). The HPLC/MS conditions and sample preparation were basically according to a validated HPLC method described before (Jin et al. [2015]; Zhang et al. [2019]). The chromatographic analysis of oridonin was performed on a Waters X-Bridge C18 column (3.0 × 100 mm, i.d.; 3.5 µm, USA) at room temperature (25 °C). The mobile phase was water (containing 0.1% formic acid) and acetonitrile (30:70, v:v) with isocratic elution at a flow rate of 0.2 mL/min, and the analysis time was 4 min.
The mass scan mode was positive MRM mode. The precursor ion and product ion are m/z 365.3→347.3 for oridonin and m/z 252.1→155.9 for IS. The collision energy for oridonin and IS were 30 and 20 eV, respectively. The MS/MS conditions were optimized as follows: fragmentor, 110 V; capillary voltage, 3.5 kV; nozzle voltage, 500 V; nebulizer gas pressure (N2), 40 psig; drying gas flow (N2), 10 L/min; gas temperature, 350 °C; sheath gas temperature, 400 °C; sheath gas flow, 11 L/min.
The pharmacokinetic parameters, including the area under the plasma concentration-time curve (AUC), maximal plasma concentration (Cmax), the time for the maximal plasma concentration (Tmax), and the mean residence time (MRT) were calculated using the DAS 3.0 pharmacokinetic software (Chinese Pharmacological Association, Anhui, China).

[4] = Bidirectional transport across Caco-2 cell transwell model; type: in vitro ADME; details: human, Caco-2, oridonin 2 µM; for Papp B→A at 2 µM: basolateral to apical
Experimental: as §1

[5] = Metabolic stability in rat liver microsomes; type: in vitro ADME; details: for microsomal CLint at 1 µM: read-out: intrinsic clearance rate; for half-life at 1 µM: read-out: metabolic half-life (t1/2)
Experimental: Rat liver microsomes were used to investigate the effects of verapamil on the metabolism clearance of oridonin, and the assay conditions and reaction mixtures were similar to those reported previously (Wang et al. [2017]; Yan et al. [2017]). In brief, 30 µL rat liver microsome (20 mg/mL), 12 µL oridonin solution (100 µM) and 1113 µL PBS buffer (0.1 M, pH 7.4) were added to the centrifuge tubes on ice. There was a 5 min preincubation step at 37 °C before initiating the reaction by adding NADPH-generating system (45 µL) into the microsomal suspension. The effects of verapamil or ketoconazole (a positive CYP3A4 inhibitor) on the metabolic stability of oridonin were investigated by adding 10 µM of verapamil or ketoconazole (12 µL, final concentration of 0.1 µM) to rat liver microsomes and preincubating them for 30 min at 37 °C, followed by the addition of NADPH-generating system. Aliquots of 100 µL were collected from the reaction volumes at 0.083, 0.167, 0.33, 0.5, 1, 2, 4, 8, 12, 24 and 36 h after the addition of oridonin, and 200 µL ice-cold acetonitrile containing esculin was added to terminate the reaction. All the experiments were performed in triplicate. The subsequent sample preparation method was same as the method of plasma sample preparation, and the concentration of oridonin was determined by LC-MS.
The in vitro half-life (t1/2) was obtained using the equation: t1/2=0.693/k; V (µL/mg)=volume of incubation (µL)/protein in the incubation (mg); Intrinsic clearance (Clint) (µL/min/mg protein)=V × 0.693/t1/2.

[6] = design: method as in Xu et al. [2006]; details: oral administration in rats; ref Xu et al. [2006]; cited from earlier work
[7] = pre-treatment of verapamil (10 mg/kg/day for 7 days)
[8] = with verapamil (concentration not stated), verapamil present

efflux ratio [1]: abrogated
efflux ratio at 25 µM [2]: 10.1
SMILES: C[C@H]1O[C@@H](O[C@H]2[C@@H](O)C[C@H](O[C@H]3[C@@H](O)C[C@H](O[C@H]4CC[C@@]5(C)[C@H](CC[C@@H]6[C@@H]5C[C@@H](O)[C@]5(C)[C@@H](C7=CC(=O)OC7)CC[C@]65O)C4)O[C@@H]3C)O[C@@H]2C)C[C@H](O)[C@@H]1O [digoxin]

Cmax ([3]; 40 mg/kg, control without verapamil): 147 ± 10.2 ng/mL
AUC(0-t) ([3]; control without verapamil): 1310 ± 290 ng·h/mL
MRT ([3]; control without verapamil): 9.25 ± 1.1 h
Tmax ([3]; control without verapamil): 1 ± 0.12 h
half-life ([3]; control without verapamil): 10.9 ± 4.38 h
CL/F ([3]; control without verapamil): 245 mL/min/kg
AUC(0-t) [3, 7]: 2230 ± 530 ng·h/mL
Cmax [3, 7]: 194 ± 10.5 ng/mL
MRT [3, 7]: 11.5 ± 1.5 h
Tmax [3, 7]: 1 ± 0.18 h
half-life [3, 7]: 13.7 ± 4.81 h
CL/F [3, 7]: 135 mL/min/kg
efflux ratio at 2 µM ([4]; pH 7.4, without verapamil): 1.67
Papp B→A at 2 µM [4, 8]: 0.222 ± 0.032 ×10⁻⁶ cm/s
efflux ratio at 2 µM [4, 8]: 1.15
Papp A→B at 2 µM ([4]; apical to basolateral, HBSS pH 7.4, 37 °C, without verapamil): 0.191 ± 0.015 ×10⁻⁶ cm/s
Papp B→A at 2 µM ([4]; HBSS pH 7.4, 37 °C, without verapamil): 0.32 ± 0.016 ×10⁻⁶ cm/s
microsomal CLint at 1 µM ([5]; pH 7.4, oridonin alone): 40.1 ± 2.5 µL/min/mg
half-life at 1 µM ([5]; pH 7.4, oridonin alone): 0.577 ± 0.045 h
half-life at 1 µM ([5]; pH 7.4, with verapamil 0.1 µM, in the presence of verapamil): 0.64 ± 0.055 h
microsomal CLint at 1 µM ([5]; pH 7.4, with verapamil 0.1 µM, verapamil present): 36.1 ± 3.7 µL/min/mg
SMILES: C=C1C(=O)[C@]23[C@H](O)[C@H]1CC[C@H]2[C@@]12CO[C@]3(O)[C@@H](O)[C@@H]1C(C)(C)CC[C@@H]2O [oridonin]
bioavailability (available after oral administration) [6]: 11%
